# According to patent US20130109646A1, “METHOD FOR TREATING GLAUCOMA OR OCULAR HYPERTENSION WITH AN ADENOSINE DERIVATIVE” (priority 2007, published 2013):
# Columns and labels:
# [1] = test system: intraocular pressure; assay: Test for intraocular pressure reduction using cynomolgus monkeys; assay type: in vivo; details: male cynomolgus monkeys; for Maximum intraocular pressure reduction degree: 0.1% (w/v) test liquid instilled into one eye twice a day for 7 days, maximum over 2, 4, 6, 8 h after administration (Compound B: pH 7, 1, 2, 4, 6 h), average of 5 to 6 cases
# Procedure: In order to examine the usefulness of the present compound as a preventive or therapeutic agent for glaucoma or ocular hypertension, an intraocular pressure lowering effect when the present compound was administered to cynomolgus monkeys (sex: male) was evaluated and studied. As the test compound, Compound A, Compound B, Compound C, Compound D, Compound E, Compound F, Compound G, Compound H and Compound I were used.
# 1) Just before a test liquid was administered, one drop of 0.4% oxybuprocaine hydrochloride eye drop was instilled into both eyes of each experimental animal to achieve local anesthesia, and the intraocular pressure was measured using an applanation tonometer. This intraocular pressure was determined as an initial intraocular pressure.
# 2) A 0.1% (w/v) test liquid (a solution or suspension) was prepared, and the test liquid was instilled into one eye of each experimental animal twice a day for 7 days. The other eye was left untreated, or a vehicle was instilled into the eye according to the same schedule. Incidentally, the test liquid was prepared according to the preparation method for an eye drop described above. Specifically, to 10 mM phosphate buffer or 1.7% borate buffer, polysorbate 80 and any of the test compounds were added and dissolved or dispersed therein. Then, the pH of the resulting solution or dispersion was adjusted to 5 with sodium hydroxide and/or dilute hydrochloric acid, whereby a test liquid containing each test compound was prepared (only in the case of Compound B, the pH of the test liquid was adjusted to 7).
# 3) After the test liquid was administered, the intraocular pressure of both eyes of each experimental animal was measured at predetermined times (at 2, 4, 6, and 8 hours after administration) (only in the case of Compound B, the intraocular pressure was measured at 1, 2, 4 and 6 hours after administration). Incidentally, before measurement, one drop of 0.4% oxybuprocaine hydrochloride eye drop was instilled into both eyes of each experimental animal to achieve local anesthesia.
# The intraocular pressure reduction degree of each test compound administration group at each measurement time was calculated from the following calculation formula. Among the obtained intraocular pressure reduction degrees at respective measurement times, the maximum value was determined as a maximum intraocular pressure reduction degree.
# Intraocular pressure reduction degree(mmHg)=|IOP (D−t)−IOP(D−0)| Equation 1
# IOP (D-t): Intraocular pressure of the eye into which the test compound was administered at t hours after administration of test compound IOP (D-0): Initial intraocular pressure of the eye into which the test compound was administered
# [2] = test system: intraocular pressure; assay: Test for intraocular pressure reduction using Japanese white rabbits; assay type: in vivo; details: male Japanese white rabbits; for Intraocular pressure reduction degree: single dose into one eye, at 2 or 4 hours after instillation at which the pressure decreased most, average of 5 to 6 cases; for intraocular pressure lowering action (in words): single instillation, 0.003 to 0.2% (w/v) depending on compound
# Procedure: In order to examine the usefulness of the present compound as a preventive or therapeutic agent for glaucoma or ocular hypertension, an intraocular pressure lowering effect when the present compound was administered to Japanese white rabbits (sex: male) was evaluated and studied. As the test compound, Compound A, Compound B, Compound C, Compound E, Compound I and Compound J were used. According to the preparation method for an eye drop described above, each test liquid containing Compound A (0.003% (w/v)), Compound B (0.2% (w/v)), Compound C (0.01% (w/v)), Compound E (0.01% (w/v)), Compound I (0.01% (w/v)) or Compound J (0.01% (w/v)) was prepared. Specifically, to 10 mM phosphate buffer or 1.7% borate buffer, polysorbate 80 and any of the test compounds were added and dissolved or dispersed therein. Then, the pH of the resulting solution or dispersion was adjusted to 5 with sodium hydroxide and/or dilute hydrochloric acid, whereby a test liquid containing each test compound was prepared (only in the case of Compound B, the pH of the test liquid was adjusted to 7). 1) Just before any of the test liquids was administered, one drop of 0.4% oxybuprocaine hydrochloride eye drop was instilled into both eyes of each experimental animal to achieve local anesthesia, and the intraocular pressure was measured using an applanation tonometer. This intraocular pressure was determined as an initial intraocular pressure. 2) Any of the prepared test liquids was administered into one eye of each experimental animal in a single dose. The other eye was left untreated, or a vehicle was instilled into the eye according to the same schedule. 3) After the test liquid was administered, the intraocular pressure of both eyes of each experimental animal was measured at predetermined times (at […] after administration). Incidentally, before measurement, one drop of 0.4% oxybuprocaine hydrochloride eye drop was instilled into both eyes of each experimental animal to achieve local anesthesia. The intraocular pressure reduction degree of each test compound administration group at each measurement time was calculated from the following calculation formula. Intraocular pressure reduction degree (mmHg)=|IOP (Ad−t)−IOP(Ad−0) Equation 2 IOP (Ad-t): Intraocular pressure of the eye into which the test compound was administered at t hours after administration of test compound IOP (Ad-0): Initial intraocular pressure of the eye into which the test compound was administered
SMILES,Maximum intraocular pressure reduction degree [1] [mmHg],Intraocular pressure reduction degree ([2]; 0.01% (w/v) test liquid) [mmHg],further results
"COC(=O)N1CCC(CC#Cc2nc(N)c3ncn([C@@H]4O[C@H](C(=O)NC5CC5)[C@@H](O)[C@H]4O)c3n2)CC1 [Compound A, 4-{3-[6-amino-9-((2R,3R,4S,5S)-5-cyclopropylcarbamoyl-3,4-dihydroxytetrahydrofuran-2-yl)-9H-purin-2-yl]-2-propynyl}-piperidine-1-carboxylic acid methyl ester]",4.9,–,"intraocular pressure lowering action (in words) ([1]; 0.1% (w/v) instilled twice a day for 7 days): significantly higher intraocular pressure lowering action among the present compounds; lowering of trough intraocular pressure by repeated instillation (in words) ([1]; 0.1% (w/v) repeated instillation (BID)): exhibited a high lowering action; trough intraocular pressure value on day 7, lower than that in the vehicle administration group ([1]; 0.1% (w/v) repeated instillation (BID) for 7 days, difference from vehicle group): 1.0 mmHg; Intraocular pressure reduction degree ([2]; 0.003% (w/v) test liquid): 3.8 mmHg; intraocular pressure lowering action (in words) [2]: significantly higher intraocular pressure lowering action among the present compounds"
"CCNC(=O)[C@H]1O[C@@H](n2cnc3c(N)nc(C#CCC4CCC(C(=O)OC)CC4)nc32)[C@H](O)[C@@H]1O (stereo partly drawn) [Compound B, 4-{3-[6-amino-9-((2R,3R,4S,5S)-5-ethylcarbamoyl-3,4-dihydroxytetrahydrofuran-2-yl)-9H-purin-2-yl]-2-propynyl}-cyclohexane-1-carboxylic acid methyl ester]",2.2,–,Intraocular pressure reduction degree ([2]; 0.2% (w/v) test liquid (pH 7)): 2.1 mmHg
"CCNC(=O)[C@H]1O[C@@H](n2cnc3c(N)nc(C#CCC4CCN(C(=O)OC)CC4)nc32)[C@H](O)[C@@H]1O [Compound C, 4-{3-[6-amino-9-((2R,3R,4S,5S)-5-ethylcarbamoyl-3,4-dihydroxytetrahydrofuran-2-yl)-9H-purin-2-yl]-2-propynyl}-piperidine-1-carboxylic acid methyl ester]",2.7,2.8,–
"CCNC(=O)[C@H]1O[C@@H](n2cnc3c(N)nc(C#CCC4CCN(C(=O)OCC)CC4)nc32)[C@H](O)[C@@H]1O [Compound D, 4-{3-[6-amino-9-((2R,3R,4S,5S)-5-ethylcarbamoyl-3,4-dihydroxytetrahydrofuran-2-yl)-9H-purin-2-yl]-2-propynyl}-piperidine-1-carboxylic acid ethyl ester]",2.9,–,–
"CCNC(=O)[C@H]1O[C@@H](n2cnc3c(N)nc(C#CCC4CCN(C(=O)OC(C)C)CC4)nc32)[C@H](O)[C@@H]1O [Compound E, 4-{3-[6-amino-9-((2R,3R,4S,5S)-5-ethylcarbamoyl-3,4-dihydroxytetrahydrofuran-2-yl)-9H-purin-2-yl]-2-propynyl}-piperidine-1-carboxylic acid isopropyl ester]",2.9,2.6,–
"Nc1nc(C#CCC2CCN(C(=O)Oc3ccc(F)cc3)CC2)nc2c1ncn2[C@@H]1O[C@H](C(=O)NC2CC2)[C@@H](O)[C@H]1O [Compound F, 4-{3-[6-amino-9-((2R,3R,4S,5S)-5-cyclopropylcarbamoyl-3,4-dihydroxytetrahydrofuran-2-yl)-9H-purin-2-yl]-2-propynyl}-piperidine-1-carboxylic acid 4-fluorophenyl ester]",2.7,–,–
"COc1ccccc1OC(=O)N1CCC(CC#Cc2nc(N)c3ncn([C@@H]4O[C@H](C(=O)NC5CC5)[C@@H](O)[C@H]4O)c3n2)CC1 [Compound G, 4-{3-[6-amino-9-((2R,3R,4S,5S)-5-cyclopropylcarbamoyl-3,4-dihydroxytetrahydrofuran-2-yl)-9H-purin-2-yl]-2-propynyl}-piperidine-1-carboxylic acid 2-methoxyphenyl ester]",2.7,–,–
"COc1ccc(OC(=O)N2CCC(CC#Cc3nc(N)c4ncn([C@@H]5O[C@H](C(=O)NC6CC6)[C@@H](O)[C@H]5O)c4n3)CC2)cc1 [Compound H, 4-{3-[6-amino-9-((2R,3R,4S,5S)-5-cyclopropylcarbamoyl-3,4-dihydroxytetrahydrofuran-2-yl)-9H-purin-2-yl]-2-propynyl}-piperidine-1-carboxylic acid 4-methoxyphenyl ester]",2.3,–,–
"Nc1nc(C#CCC2CCN(C(=O)Oc3ccc(F)c(F)c3)CC2)nc2c1ncn2[C@@H]1O[C@H](C(=O)NC2CC2)[C@@H](O)[C@H]1O [Compound I, 4-{3-[6-amino-9-((2R,3R,4S,5S)-5-cyclopropylcarbamoyl-3,4-dihydroxytetrahydrofuran-2-yl)-9H-purin-2-yl]-2-propynyl}-piperidine-1-carboxylic acid 3,4-difluorophenyl ester]",1.8,1.7,–
"Nc1nc(C#CCC2CCN(C(=O)OC3CCC3)CC2)nc2c1ncn2[C@@H]1O[C@H](C(=O)NC2CC2)[C@@H](O)[C@H]1O [Compound J, 4-{3-[6-amino-9-((2R,3R,4S,5S)-5-cyclopropylcarbamoyl-3,4-dihydroxytetrahydrofuran-2-yl)-9H-purin-2-yl]-2-propynyl}-piperidine-1-carboxylic acid cyclobutyl ester]",–,4.1,intraocular pressure lowering action (in words) [2]: significantly higher intraocular pressure lowering action among the present compounds
